# Laboratory results: publication PMC9694130, “Design, Preparation, Characterization and Evaluation of Five Cocrystal Hydrates of Fluconazole with Hydroxybenzoic Acids” (Pharmaceutics, 2022)
# Legend:
# [1] = cited from earlier work; for aqueous solubility of CCFs in water: water at 25 °C, no reference given
# [2] = Intrinsic dissolution rate (IDR) in ultrapure water; type: physicochemical; details: 37 °C; for order of intrinsic dissolution rate: ultrapure water, 100 rpm, rank among the three cocrystal hydrates
# Procedure: The resulting disk has a flat surface of 0.5 cm^2. Then, the disk was dipped into a vessel containing 900 mL ultrapure water at 37 ± 0.2 °C, with the paddle rotating at 100 rpm. At time intervals (60, 75, 90, 120, 150, 180, 210, 240, 270, and 300 min), 1 mL of the dissolution medium was withdrawn manually. After filtration through a 0.45 μm syringe tip filter, the aliquots were assayed on an HPLC system. Each experiment was repeated in triplicate.
# (§1) The HPLC (Agilent Technologies, Santa Clara, USA) system was equipped with a UV detector and an Agilent Eclipse XDB−C18 (250 mm × 4.6 mm, 5 μm) column with the temperature set to 30 °C. The mobile phase consisted of acetonitrile and water (25:75, v:v) with a flow rate of 1.0 mL min^−1. The injection volume was 10 μL and the detection wavelength was set to 261 nm.
# [3] = Apparent powder dissolution in ultrapure water; type: physicochemical; details: 37 °C, 100 rpm, rank among the three cocrystal hydrates
# Procedure: Sampling was conducted by withdrawing 1 mL aliquot of the sample at time intervals of 5, 10, 15, 20, 30, 45, 60, 90, and 120 min from the vessel and filtered through a 0.45 μm syringe tip filter, and the aliquots were assayed on a high-performance liquid chromatography (HPLC) system. The measurements of the powder dissolution rate were repeated in triplicate.
# as §1
# [4] = Accelerated stability test (PXRD); type: physicochemical; details: for stability under high temperature: high temperature (60 ± 1 °C), phase changes reported after 5 days
# Procedure: Approximately 50 mg of powdered samples were stored under the three test conditions and measured at regular time intervals (0, 5, and 10 days) by PXRD.
Structure (SMILES),aqueous solubility of CCFs in water [1],order of intrinsic dissolution rate [2],order of apparent dissolution rate [3],"stability under high temperature ([4]; PXRD at 0, 5 and 10 days)",other results
"O=C(O)c1ccc(O)c(O)c1 [34DHB, 3,4-dihydroxybenzoic acid]",29 mg/mL,,,,
O.O.O=C(O)c1ccc(O)cc1O.OC(Cn1cncn1)(Cn1cncn1)c1ccc(F)cc1F.OC(Cn1cncn1)(Cn1cncn1)c1ccc(F)cc1F [FLZ−24DHB−H2O (1:0.5:1)],,FLZ−35DHB−H2O (1:1:1) > FLZ−34DHB−H2O (1:1:1) > FLZ−24DHB−H2O (1:0.5:1),FLZ−35DHB−H2O (1:1:1) > FLZ−34DHB−H2O (1:1:1) > FLZ−24DHB−H2O (1:0.5:1),converted to the physical mixture of amorphous and crystalline phases,
"O=C(O)c1ccc(O)cc1O [24DHB, 2,4-dihydroxybenzoic acid]",8 mg/mL,,,,
O.O=C(O)c1cc(O)cc(O)c1.OC(Cn1cncn1)(Cn1cncn1)c1ccc(F)cc1F [FLZ−35DHB−H2O (1:1:1)],,FLZ−35DHB−H2O (1:1:1) > FLZ−34DHB−H2O (1:1:1) > FLZ−24DHB−H2O (1:0.5:1),FLZ−35DHB−H2O (1:1:1) > FLZ−34DHB−H2O (1:1:1) > FLZ−24DHB−H2O (1:0.5:1),forming an anhydrous form,"IDR compared with FLZ form II ([2]; ultrapure water 900 mL, paddle 100 rpm, disk 0.5 cm^2): higher IDR"
"O.OC(Cn1cncn1)(Cn1cncn1)c1ccc(F)cc1F [FLZ monohydrate, reference compound]",,,,converted to FLZ form II,
"O=C(O)c1cc(O)cc(O)c1 [35DHB, 3,5-dihydroxybenzoic acid]",84 mg/mL,,,,
O.O.O=C(O)c1ccc(O)c(O)c1.OC(Cn1cncn1)(Cn1cncn1)c1ccc(F)cc1F.OC(Cn1cncn1)(Cn1cncn1)c1ccc(F)cc1F [FLZ−34DHB−H2O (1:0.5:1)],,,,converted to the physical mixture of amorphous and crystalline phases,
O.O=C(O)c1ccc(O)c(O)c1.OC(Cn1cncn1)(Cn1cncn1)c1ccc(F)cc1F [FLZ−34DHB−H2O (1:1:1)],,FLZ−35DHB−H2O (1:1:1) > FLZ−34DHB−H2O (1:1:1) > FLZ−24DHB−H2O (1:0.5:1),FLZ−35DHB−H2O (1:1:1) > FLZ−34DHB−H2O (1:1:1) > FLZ−24DHB−H2O (1:0.5:1),stable,"hygroscopicity relative to FLZ ([4]; compared with commercialized FLZ form II): significantly reduces hygroscopicity; stability under high humidity ([4]; high humidity (90 ± 5%, 25 °C), PXRD at 0, 5 and 10 days): stable; stability under illumination ([4]; illumination (4500 ± 500 lx, 25 °C), PXRD at 0, 5 and 10 days): stable"
"OC(Cn1cncn1)(Cn1cncn1)c1ccc(F)cc1F [FLZ, 2-(2,4-difluorophenyl)-1,3-di(1H-1,2,4-triazol-1-yl)propan-2-ol, reference compound]",,,,,aqueous solubility ([1]; FLZ form II): 2 to 8 mg/mL
